Test results as given in ChEMBL document CHEMBL1131405, “Novel bisphosphonate inhibitors of phosphoglycerate kinase” (Bioorg Med Chem Lett, 1998).

Key:
[1] = Dissociation constant (pKa4); assay type: physicochemical; settings: read-out: pKa4
[2] = Dissociation constant (pKa3); assay type: physicochemical; settings: read-out: pKa3

Structure (SMILES)	pKa [1]	pKa [2]
O=P(O)(O)C(F)c1cccc(C(F)P(=O)(O)O)c1 (stereo unspecified)	6.37	6.01
Cc1cc(C)c(CP(=O)(O)O)c(C)c1CP(=O)(O)O	8.16	7.4
O=P(O)(O)C(F)c1cccc(C(F)P(=O)(O)O)n1 (stereo unspecified)	5.3	5.18
C=C(CP(=O)(O)O)CP(=O)(O)O	7.45	6.45
O=P(O)(O)Cc1cccc(P(=O)(O)O)c1	7.61	6.47
O=P(O)(O)C(F)(F)c1ccc(C(F)(F)P(=O)(O)O)cc1	5.6	4.82
O=P(O)(O)Cc1cccc(C(F)(F)P(=O)(O)O)c1	5.84	5.04
O=P(O)(O)C(O)c1cccc(C(O)P(=O)(O)O)n1 (stereo unspecified)	7.58	6.57
O=P(O)(O)C(F)c1ccc(C(F)P(=O)(O)O)cc1 (stereo unspecified)	6.37	6.02
Cc1cc(C)c(C(F)(F)P(=O)(O)O)cc1C(F)(F)P(=O)(O)O	5.92	5.33
O=P(O)(O)Cc1cccc(CP(=O)(O)O)c1	7.71	7.11
O=P(O)(O)Cc1ccc(C(F)(F)P(=O)(O)O)cc1	6.63	5.27
O=P(O)(O)c1cccc(C(F)P(=O)(O)O)c1 (stereo unspecified)	6.99	5.8
O=P(O)(O)Cc1cccc(CP(=O)(O)O)n1	8.49	6.7
Cc1cc(C)c(CP(=O)(O)O)cc1CP(=O)(O)O	7.78	7.24
O=P(O)(O)Cc1ccc(CP(=O)(O)O)cc1	7.49	7.03
O=P(O)(O)C(F)(F)c1cccc(C(F)(F)P(=O)(O)O)n1	5.3	5.18
O=P(O)(O)c1cccc(C(O)P(=O)(O)O)c1 (stereo unspecified)	7.46	6.55
O=P(O)(O)Cc1ccccc1CP(=O)(O)O	8.53	7.1
O=P(O)(O)C(O)c1cccc(C(O)P(=O)(O)O)c1 (stereo unspecified)	7.23	6.78
O=P(O)(O)Cc1ccc(C(F)P(=O)(O)O)cc1 (stereo unspecified)	7.72	6.3
O=P(O)(O)c1cccc(C(F)(F)P(=O)(O)O)c1	6.9	5.61
O=P(O)(O)Cc1cccc(C(O)P(=O)(O)O)c1 (stereo unspecified)	7.29	6.98
